Source: ChEMBL document CHEMBL3616469, “Synthesis, electronic properties, antioxidant and antibacterial activity of some new benzimidazoles” (Bioorg Med Chem, 2015)
≈ marks a conversion by molar mass, not a printed value. Calls of active or inactive are those of the source. No cut-off for these calls is given here.

Assays:
[1] = Antioxidant activity assessed as inhibition of AAPH-induced lipid peroxidation after 3 hrs by TBA-MDA test; type: physicochemical
[2] = Antioxidant activity assessed as inhibition of AAPH-induced lipid peroxidation at 200 ug/ml after 3 hrs by TBA-MDA test; type: physicochemical
[3] = test system: Staphylococcus aureus; assay: Antibacterial activity against Staphylococcus aureus ATCC 6538 by broth microdilution method; type: functional
[4] = test system: Pseudomonas aeruginosa; assay: Antibacterial activity against Pseudomonas aeruginosa ATCC 9027 by broth microdilution method; type: functional
[5] = test system: Bacillus spizizenii; assay: Antibacterial activity against Bacillus subtilis ATCC 6633 by broth microdilution method; type: functional
[6] = test system: Salmonella enterica subsp. enterica serovar Abony; assay: Antibacterial activity against Salmonella abony NCTC 6017 by broth microdilution method; type: functional
[7] = test system: Escherichia coli; assay: Antibacterial activity against Escherichia coli ATCC 8739 by broth microdilution method; type: functional

Structure (SMILES) | IC50 [1] | inhibition (INH) [2] | MIC [3] | MIC [4] | MIC [5] | MIC [6] | MIC [7]
O=C(c1ccccc1)c1ccc2c(c1)nc1s/c(=C\c3ccc(F)cc3)c(=O)n12 | 53.7 µg/mL (≈ 134 µM) | 90.76% | – | – | – | – | –
CCOC(=O)Cn1c(=N)n(CC(=O)OCC)c2cc(C)ccc21 | 176.58 µg/mL (≈ 553 µM) | 55.87% | inactive | inactive | inactive | inactive | inactive
O=c1c(O)c(-c2ccc(O)c(O)c2)oc2cc(O)cc(O)c12 [QUERCETIN] | 10.47 µg/mL (≈ 34.6 µM) | 91.12% | – | – | – | – | –
N=c1n(CC(=O)c2ccccc2)c2ccc([N+](=O)[O-])cc2n1CC(=O)c1ccccc1 | > 200 µg/mL | 23.43% | inactive | inactive | 1000 µg/mL (≈ 2410 µM) | inactive | inactive
Cc1ccc2c(c1)n(CC(=O)c1ccccc1)c(=N)n2CC(=O)c1ccccc1 | > 200 µg/mL | 39.26% | 500 µg/mL (≈ 1300 µM) | inactive | 500 µg/mL (≈ 1300 µM) | inactive | inactive
CCOC(=O)Cn1c(=N)n(CC(=O)OCC)c2cc(C(=O)c3ccccc3)ccc21 | 141.89 µg/mL (≈ 347 µM) | 74.04% | inactive | inactive | inactive | inactive | inactive
Cc1ccc2c(c1)n(CCCc1ccccc1)c(=N)n2CCCc1ccccc1 | 144.88 µg/mL (≈ 378 µM) | 62.15% | 16 µg/mL (≈ 41.7 µM) | inactive | 125 µg/mL (≈ 326 µM) | 500 µg/mL (≈ 1300 µM) | 500 µg/mL (≈ 1300 µM)
C[C@H]1c2cccc(O)c2C(=O)C2=C(O)[C@]3(O)C(=O)C(C(N)=O)=C(O)[C@@H](N(C)C)[C@@H]3[C@@H](O)[C@@H]21.O [DOXYCYCLINE] | – | – | 0.78 µg/mL | 12.5 µg/mL | 1.56 µg/mL | 6.25 µg/mL | 0.78 µg/mL

The next lines start with results.

IC50 [1] | inhibition (INH) [2] | Structure (SMILES) | MIC [3] | MIC [4] | MIC [5] | MIC [6] | MIC [7]
85.51 µg/mL (≈ 201 µM) | 60.8% | O=C(c1ccccc1)c1ccc2c(c1)nc1s/c(=C\c3ccc4c(c3)OCO4)c(=O)n12 | – | – | – | – | –
9.12 µg/mL (≈ 51.8 µM) | 99.9% | O=C1O[C@H]([C@@H](O)CO)C(O)=C1O [ASCORBIC ACID] | – | – | – | – | –
7.74 µg/mL (≈ 30.9 µM) | 85.61% | Cc1c(C)c2c(c(C)c1O)CCC(C)(C(=O)O)O2 (stereo unspecified) [TROLOX] | – | – | – | – | –
74.11 µg/mL (≈ 180 µM) | 80.35% | COc1ccccc1/C=c1\sc2nc3cc(C(=O)c4ccccc4)ccc3n2c1=O | – | – | – | – | –
3.79 µg/mL (≈ 21 µM) | 99.98% | O=C(O)/C=C/c1ccc(O)c(O)c1 [CAFFEIC ACID] | – | – | – | – | –
86.97 µg/mL (≈ 217 µM) | 75.76% | O=C(c1ccccc1)c1ccc2c(c1)nc1s/c(=C\c3ccccc3F)c(=O)n12 | – | – | – | – | –
